These results are taken from US12551541B2, “Albumin bound macromolecule tri-agonist activating GLP 1/GIP/glucagon receptors and methods therefor” (AlbuNext, LLC, priority 2023, dated 2026).

For orientation: half-life means the time needed for the level to fall by half in the phase considered.

The conditions of data set [1]: 0.16 pmol/kg per minute; cited from earlier work.
For data set [2] the following is noted: monotherapy, cited from earlier work.
The target of data set [3] is GLP-1 receptor (Homo sapiens, UniProt P43220). The settings on record: cited from earlier work.
GLP-1 receptor, sequence (P43220 24-463, species assumed): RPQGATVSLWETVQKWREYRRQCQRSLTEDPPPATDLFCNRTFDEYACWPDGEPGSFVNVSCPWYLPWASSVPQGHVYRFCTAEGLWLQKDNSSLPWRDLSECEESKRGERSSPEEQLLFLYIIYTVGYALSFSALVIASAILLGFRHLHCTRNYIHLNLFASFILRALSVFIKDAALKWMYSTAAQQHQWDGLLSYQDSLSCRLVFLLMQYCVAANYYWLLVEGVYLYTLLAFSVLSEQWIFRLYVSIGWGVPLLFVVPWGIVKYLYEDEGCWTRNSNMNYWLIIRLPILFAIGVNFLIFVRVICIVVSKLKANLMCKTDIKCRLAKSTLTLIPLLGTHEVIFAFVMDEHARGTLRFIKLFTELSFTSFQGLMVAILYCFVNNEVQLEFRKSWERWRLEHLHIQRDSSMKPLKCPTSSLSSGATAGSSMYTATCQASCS
For data set [4] the following is noted: in vivo; cited from earlier work.
Data set [5] relates to DIO (diet induced obesity) mice. Description: DIO (diet induced obesity) mice, single subcutaneous injection, NASH. The class given is in vivo. Conditions: single dosage of 100 nmol/kg, over 26 days. Here is the method: In still further experiments to confirm that contemplated compounds presented herein are also effective as modulators for hepatic metabolism, and particularly in the treatment and even at least partial reversion of NASH (non-alcoholic […]), the inventors tested selected compounds in DIO (diet induced obesity) mice. […] The body weight of all treated animals was recorded over 26 days, and average body weight over time for 16 and 26 days are shown in FIG. 34A and FIG. 34B, respectively.
To investigate liver function and metabolism, liver weight was determined at the end of the study and results are shown in FIG. 38. […] In addition, liver function was assessed at the end of the study by testing AST (aspartate aminotransferase) and ALT (alanine transaminase).
In still further tests for hepatic metabolic modulation, the inventors also determined total cholesterol and LDL cholesterol at the end of the study, and exemplary results are shown in FIG. 41 (for total cholesterol) and FIG. 42 (for LDL cholesterol). […] As diet induced obesity is also often associated with inflammation, the inventors also measured levels of selected pro-inflammatory cytokines. Here, IL-1α and IL-6 levels were determined at the end of the study.

As to “GLP-1: naturally occurring hormone released by L cells in the lower intestine”, the adverse events entry in data set [1] is listed as “vomiting within eight minutes”.

For albiglutide, the “decrease in HbA1c from baseline” value in data set [2] (30 mg weekly dose, week 52) was −0.7%. Moreover, in data set [2] (50 mg weekly dose), the “change from baseline of HbA1c” value is −0.9%. The GLP-1 receptor affinity in data set [3] was 20 nM. Further, in data set [4], the half-life was 140 to 190 h.

For the substance semaglutide [reference compound], the body weight entry in data set [5] is “effective in reduction of body weight”.
